The values that follow come from PMC12530842, “Potent, Selective, and Drug‐Like G Protein‐Coupled Receptor Kinase 5 and 6 Inhibitors: Design, Synthesis, and X‐Ray Structural Studies” (Chemmedchem, 2025).

Common to all, as to assay type: biochemical
The target of one test is T1, GRK6 (Homo sapiens, UniProt P43250, C561S/C562S/C565S/T10A).
T1 construct: His tag (inferred: purified by the GRK5 protocol, which starts with nickel-NTA); made in house; host or cells: Sf9 insect cells
As to the kind of experiment: GRK6 kinase inhibition assay, phosphorylation of tubulin ([γ-32P]-ATP). The note with it: for Selectivity GRK5/GRK6: fold selectivity for GRK6 over GRK5; for IC50: phosphorylation of the soluble substrate tubulin, ± standard deviation from 3 to 4 independent experiments. Here is the method:
(§1) The inhibitory potency of synthetic compounds containing the N‐heterocyclic amide functionalities was evaluated against human GRK2, GRK5 and GRK6 using our in vitro assays‐, as reported previously.^[ [35], [37] ^] […] We then investigated the effect of (R)‐ and (S)‐Boc pyrrolidine carboxamide derivatives. […] These improvements of GRK5 IC50 values over their Boc‐derivatives (6c and 6d) indicated the bulky Boc group may not be able to fit as well in the catalytic site of these GRKs. On the other hand, sterically less demanding acetamide derivatives 6e and 6f were well accommodated consistent with their very good activity against GRK5, GRK6, and GRK2, but only with marginal selectivity against GRK2. […] We also examined the effect of 3(S)‐ and 3(R)‐Boc‐pyrrolidine derivatives.
(§2) Protein expression and purification.
(§3) Human GR K5 (residues 1- 590) w ild- type and D 311N mutant w ere expressed in E. co li Rosetta (D E3) and purified v ia nickel-nitrilotriacetic acid affinity chromatography, followed by tandem columns consisting of a HiTrap Q HP anion exchange chromatography column and a HiTrap SP HP cation exchange chromatography column, and finished by Superdex 200 Increase size -exclusion chromatography, as described previously. Human GRK6 (with T10A and mutations that eliminate palmitoylation sites) was expressed in Sf9 insect cells [ 2] and was purified w ith the same protocol for GR K5 [1]. Human GRK2 w as purified as described previously.
(§4) Kinase inhibition Assays.
(§5) Inhibit ion assays were conducted in a reaction mixture containing 20 mM H EPES pH 7. 0, 2 mM MgC l2, and 0.025% n- dodecyl-β-D-maltoside. Prior to reaction initiation, GR K5 or GR K6 at 50 nM was mixed w ith porcine brain tubulin ( PurSolutions) at a concentration of 500 nM. The assay w as started w ith a 30- second incubation of inhibitors, followed by the add it ion of 5 μ M ATP supplemented w ith radioactive [γ-32P]-AT P a t 60 C i/m mol (PerkinElm er Life Sciences). Re actions pro ceeded for 5 m inut es at ro o m te mpera ture a nd were terminated by adding 4X SDS loading buffer. T he reaction mixtures were then s eparated via SDS - PAG E, dried, and exposed using a phosphor imaging screen. Quantification was performed using a Personal Molecular Imager and Quantity One 1- D Analysis Software. Analogous inhibition assays were conducted on p urified GR K2 wit h a t ub ulin conce ntrat ion of 1 μ M. Data ana lysis was perf orme d usin g Graph Pa d Pr ism, and IC50 values wer e calculated based on three- parameter dose- dependent curves (with a Hill coefficient fixed at 1) plotting phosphate transfer against inhibitor concentration. At least three replicates were conducted to determine the mean and standard deviation of IC50 values as published previously . […]
(§6) (6) The final models w ere validated with MolProbity prior to depos ition along with structure factors in the Protein Data Bank. Atomic figures were created with Py mol (7). Cr ystallographic statistics are reported in Supplemental Table 1. Coordinates for inh ib itor 6t (GRL-098- 22) w ere deposited in the Protein Data Bank, with accession code 9BR K.
(§7) 1. Y. Chen, A. Sonawane, R. Manda, R. K. G adi, J. J. G. Tesmer, A. K. Ghosh. Development of a new class of potent and highly select ive G protein- coupled r eceptor kinase 5 inhibitors and structural insight from crystal structures of inhibitor complexes. Eur. J. Med. Chem. 2024, 264, 115931.
(§8) 2. D. T. Lodowski, V. M. T esmer, J. L. Benovic, J. J. Tesmer. The structure of G protein- coupled receptor kinase (GRK)-6 defines a second lineage of GRKs. J. Bio l. C he m. 2006, 281,16785- 16793.

The target in another test is T2, GRK5 (Homo sapiens, UniProt P34947).
T2 construct: Human GR K5 (residues 1- 590) w ild- type and D 311N mutant w ere expressed in E. co li Rosetta; His tag (inferred from nickel-NTA purification); made in house; host or cells: E. coli Rosetta (DE3)
As to the kind of experiment: GRK5 kinase inhibition assay, phosphorylation of tubulin ([γ-32P]-ATP). Particulars: for Selectivity GRK2/GRK5: fold selectivity for GRK5 over GRK2; for IC50: phosphorylation of the soluble substrate tubulin, ± standard deviation from 3 to 4 independent experiments. How it is done:
as §1, §2, §3, §4, §5, §6, §7, §8

A further test concerns the target T3, GRK2 (Homo sapiens, UniProt P25098).
T3 construct: made in house
T3 sequence (P25098 1-689): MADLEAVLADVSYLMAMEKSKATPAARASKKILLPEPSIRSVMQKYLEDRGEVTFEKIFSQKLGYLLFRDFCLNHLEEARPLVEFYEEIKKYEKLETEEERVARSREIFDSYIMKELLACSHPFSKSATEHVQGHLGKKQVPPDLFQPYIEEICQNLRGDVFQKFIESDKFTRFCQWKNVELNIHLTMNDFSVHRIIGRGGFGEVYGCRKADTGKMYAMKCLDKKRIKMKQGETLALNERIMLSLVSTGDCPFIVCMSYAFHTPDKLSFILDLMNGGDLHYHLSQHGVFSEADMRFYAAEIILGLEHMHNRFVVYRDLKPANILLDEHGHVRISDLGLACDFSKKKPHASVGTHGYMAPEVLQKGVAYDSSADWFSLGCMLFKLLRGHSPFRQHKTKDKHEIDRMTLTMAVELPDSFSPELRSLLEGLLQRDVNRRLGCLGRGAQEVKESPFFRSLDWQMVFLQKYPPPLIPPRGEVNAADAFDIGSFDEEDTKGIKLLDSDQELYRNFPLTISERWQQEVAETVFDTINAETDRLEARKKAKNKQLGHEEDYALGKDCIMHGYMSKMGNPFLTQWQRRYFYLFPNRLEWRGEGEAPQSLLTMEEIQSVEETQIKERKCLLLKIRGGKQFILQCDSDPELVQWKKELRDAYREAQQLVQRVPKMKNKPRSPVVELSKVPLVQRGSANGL
As to the kind of experiment: GRK2 kinase inhibition assay, phosphorylation of tubulin ([γ-32P]-ATP). The note with it: for IC50: phosphorylation of the soluble substrate tubulin, ± standard deviation from 3 to 4 independent experiments. How it is done:
as §1, §2, §3, §4, §5, §6, §7, §8

T1 sequence (P43250 whole entry T10A/C561S/C562S/C565S): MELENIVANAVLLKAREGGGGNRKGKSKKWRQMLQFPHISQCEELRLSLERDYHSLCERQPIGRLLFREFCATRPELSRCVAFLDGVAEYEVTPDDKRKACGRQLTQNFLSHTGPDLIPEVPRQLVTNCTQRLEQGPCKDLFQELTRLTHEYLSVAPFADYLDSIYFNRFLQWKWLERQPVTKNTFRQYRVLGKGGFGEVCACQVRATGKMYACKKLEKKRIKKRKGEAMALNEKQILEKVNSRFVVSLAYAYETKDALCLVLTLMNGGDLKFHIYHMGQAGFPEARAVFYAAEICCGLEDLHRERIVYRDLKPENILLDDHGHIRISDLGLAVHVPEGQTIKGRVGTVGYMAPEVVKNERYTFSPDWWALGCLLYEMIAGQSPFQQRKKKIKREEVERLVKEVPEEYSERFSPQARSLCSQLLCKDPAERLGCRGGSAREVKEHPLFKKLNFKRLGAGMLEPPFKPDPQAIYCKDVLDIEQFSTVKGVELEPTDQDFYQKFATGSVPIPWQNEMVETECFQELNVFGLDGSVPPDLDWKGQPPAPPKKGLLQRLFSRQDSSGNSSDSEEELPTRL
T2 sequence (P34947 whole entry, the tested form may be a part): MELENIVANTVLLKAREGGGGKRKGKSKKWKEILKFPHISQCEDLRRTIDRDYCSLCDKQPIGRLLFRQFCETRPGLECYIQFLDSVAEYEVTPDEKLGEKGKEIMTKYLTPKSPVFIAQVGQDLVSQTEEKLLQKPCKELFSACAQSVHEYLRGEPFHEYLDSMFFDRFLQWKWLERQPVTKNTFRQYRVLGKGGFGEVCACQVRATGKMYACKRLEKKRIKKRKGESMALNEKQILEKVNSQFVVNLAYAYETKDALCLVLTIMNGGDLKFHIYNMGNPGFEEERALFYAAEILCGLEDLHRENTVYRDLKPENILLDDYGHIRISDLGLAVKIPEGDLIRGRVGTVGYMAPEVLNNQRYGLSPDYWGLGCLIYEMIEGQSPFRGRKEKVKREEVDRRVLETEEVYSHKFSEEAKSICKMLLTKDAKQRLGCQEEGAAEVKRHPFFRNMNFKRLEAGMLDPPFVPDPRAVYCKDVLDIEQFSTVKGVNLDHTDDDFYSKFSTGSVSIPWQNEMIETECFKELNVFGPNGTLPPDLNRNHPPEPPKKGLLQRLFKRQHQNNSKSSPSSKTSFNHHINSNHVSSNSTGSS

The term IC50 denotes the concentration that gives 50% inhibition. For `Cc1[nH]c(/C=C2\C(=O)Nc3ccc(C(=O)N[C@H](C)c4ccc(F)cc4)cc32)c(C)c1NC(=O)[C@H]1CCC(=O)N1` [6b, (Z)‐3‐((3,5‐Dimethyl‐4‐((R)‐5‐Oxopyrrolidine‐2‐Carboxamido)‐1H‐Pyrrol‐2‐Yl)Methylene)‐N‐((R)‐1‐(4‐Fluorophenyl)Ethyl)‐2‐Oxoindoline‐5‐Carboxamide], on GRK6, the “Selectivity GRK5/GRK6” value turned out to be 30 fold and half-maximal inhibition (IC50) required 28 ± 2 nM. Besides, on GRK5, the “Selectivity GRK2/GRK5” value stood at 3 fold and the IC50 is 800 ± 400 nM. In addition, the “fold reduction of GRK5 activity” value on GRK5 (in comparison with compound 6a) amounted to 30 fold. Besides, half-maximal inhibition against GRK2 (IC50) required 2.1 ± 0.2 µM.

For the compound `Cc1[nH]c(/C=C2\C(=O)Nc3ccc(C(=O)N[C@H](C)c4ccc(F)cc4)cc32)c(C)c1NC(=O)[C@H]1CCCNC1` [6q, (Z)‐3‐((3,5‐Dimethyl‐4‐((S)‐Piperidine‐3‐Carboxamido)‐1H‐Pyrrol‐2‐Yl)Methylene)‐N‐((R)‐1‐(4‐Fluorophenyl)Ethyl)‐2‐Oxoindoline‐5‐Carboxamide], at GRK6, the “Selectivity GRK5/GRK6” value turned out to be 2 fold and the 50% inhibitory concentration (IC50) was 16 ± 3 nM. In addition, on GRK5, the “Selectivity GRK2/GRK5” value was 4 fold and inhibition was half-maximal at 30 ± 20 nM (IC50). On GRK2, this compound displayed an IC50 of 0.11 ± 0.02 µM.

For `Cc1[nH]c(/C=C2\C(=O)Nc3ccc(C(=O)N[C@H](C)c4ccc(F)cc4)cc32)c(C)c1NC(=O)[C@H]1CCCCN1C(=O)OC(C)(C)C` [6m, Tert‐Butyl(R)‐2‐((5‐(((Z)‐5‐(((R)‐1‐(4‐Fluorophenyl)Ethyl)Carbamoyl)‐2‐Oxoindolin‐3‐Ylidene)Methyl)‐2,4‐Dimethyl‐1H‐Pyrrol‐3‐Yl)Carbamoyl)Piperidine‐1‐Carboxylate], the IC50 came to 2500 ± 400 nM against GRK6, 500 ± 100 nM against GRK5 and 1.2 ± 0.4 µM at GRK2. The “Selectivity GRK2/GRK5” value on GRK5 is 2 fold.

Turning to `Cc1[nH]c(/C=C2\C(=O)Nc3ccc(C(=O)N[C@H](C)c4ccc(F)cc4)cc32)c(C)c1NC(=O)[C@@H]1CCN(C(=O)OC(C)(C)C)C1` [6k, Tert‐Butyl(R)‐3‐((5‐(((Z)‐5‐(((R)‐1‐(4‐Fluorophenyl)Ethyl)Carbamoyl)‐2‐Oxoindolin‐3‐Ylidene)Methyl)‐2,4‐Dimethyl‐1H‐Pyrrol‐3‐Yl)Carbamoyl)Pyrrolidine‐1‐Carboxylate], on GRK6, the “GRK6 IC50 (in words)” value was “low micromolar range”, the “Selectivity GRK5/GRK6” value came out at 1 fold and inhibition was half-maximal at 1400 ± 200 nM (IC50). For the same compound, on GRK5, the “GRK5 IC50 (in words)” value is on record as “low micromolar range”, the “Selectivity GRK2/GRK5” value was 140 fold and 2100 ± 900 nM corresponded to half-maximal inhibition (IC50). Besides, at GRK2, the “activity against GRK2 (in words)” value is listed as “little to no activity” and it took 300 ± 100 µM to reach half-maximal inhibition (IC50).

As to `CC(=O)N1CCC[C@@H]1C(=O)Nc1c(C)[nH]c(/C=C2\C(=O)Nc3ccc(C(=O)N[C@H](C)c4ccc(F)cc4)cc32)c1C` [6e, (Z)‐3‐((4‐((R)‐1‐Acetylpyrrolidine‐2‐Carboxamido)‐3,5‐Dimethyl‐1H‐Pyrrol‐2‐Yl)Methylene)‐N‐((R)‐1‐(4‐Fluorophenyl)Ethyl)‐2‐Oxoindoline‐5‐Carboxamide], at GRK6, the “Selectivity GRK5/GRK6” value worked out at 1 fold and the IC50 amounted to 60 ± 20 nM. Besides, at GRK5, the “Selectivity GRK2/GRK5” value stood at 8 fold and inhibition was half-maximal at 40 ± 6 nM (IC50). The compound further showed an IC50 against GRK2 of 0.32 ± 0.09 µM.

With `Cc1[nH]c(/C=C2\C(=O)Nc3ccc(C(=O)N[C@H](C)c4ccc(F)cc4)cc32)c(C)c1NC(=O)[C@H]1CN(C(=O)OC(C)(C)C)CCN1` [6s, Tert‐Butyl(R)‐3‐((5‐(((Z)‐5‐(((R)‐1‐(4‐Fluorophenyl)Ethyl)Carbamoyl)‐2‐Oxoindolin‐3‐Ylidene)Methyl)‐2,4‐Dimethyl‐1H‐Pyrrol‐3‐Yl)Carbamoyl)Piperazine‐1‐Carboxylate], the “Selectivity GRK5/GRK6” value on GRK6 is 1 fold. Also, the IC50 against GRK6 came out at 60 ± 20 nM; at GRK5 it was 81 ± 10 nM; against GRK2, 35 ± 9.4 µM. Also, on GRK5, the “Selectivity GRK2/GRK5” value was determined as 430 fold.

As to `Cc1[nH]c(/C=C2\C(=O)Nc3ccc(C(=O)N[C@H](C)c4ccc(F)cc4)cc32)c(C)c1NC(=O)[C@H]1CCCN1C(=O)OC(C)(C)C` [6c, Tert‐Butyl(R)‐2‐((5‐(((Z)‐5‐(((R)‐1‐(4‐Fluorophenyl)Ethyl)Carbamoyl)‐2‐Oxoindolin‐3‐Ylidene)Methyl)‐2,4‐Dimethyl‐1H‐Pyrrol‐3‐Yl)Carbamoyl)Pyrrolidine‐1‐Carboxylate], at GRK6, the “Selectivity GRK5/GRK6” value turned out to be 35 fold and half-maximal inhibition (IC50) required 1400 ± 500 nM. Also, on GRK5, the “Selectivity GRK2/GRK5” value was more than 3 fold and inhibition was half-maximal at 50000 ± 30000 nM (IC50). The compound also yielded an IC50 against GRK2 of 160 ± 100 µM.

`Cc1[nH]c(/C=C2\C(=O)Nc3ccc(C(=O)N[C@H](C)c4ccc(F)cc4)cc32)c(C)c1NC(=O)[C@@H]1CCCN1C(=O)OC(C)(C)C` [6d, Tert‐Butyl(S)‐2‐((5‐(((Z)‐5‐(((R)‐1‐(4‐Fluorophenyl)Ethyl)Carbamoyl)‐2‐Oxoindolin‐3‐Ylidene)Methyl)‐2,4‐Dimethyl‐1H‐Pyrrol‐3‐Yl)Carbamoyl)Pyrrolidine‐1‐Carboxylate]: the half-maximal inhibitory concentration (IC50) against GRK6 is 9900 ± 2000 nM; on GRK5 it was 440 ± 160 nM; against GRK2 it was more than 1000 µM. The “Selectivity GRK2/GRK5” value at GRK5 is recorded as more than 2000 fold. Besides, the “fold enhanced GRK5 inhibitory activity” value at GRK5 (over the (R)-Boc derivative 6c) was “over 100 fold”.

Consider `Cc1[nH]c(/C=C2\C(=O)Nc3ccc(C(=O)N[C@H](C)c4ccc(F)cc4)cc32)c(C)c1NC(=O)[C@H]1CCN(C(=O)OC(C)(C)C)C1` [6l, Tert‐Butyl(S)‐3‐((5‐(((Z)‐5‐(((R)‐1‐(4‐Fluorophenyl)Ethyl)Carbamoyl)‐2‐Oxoindolin‐3‐Ylidene)Methyl)‐2,4‐Dimethyl‐1H‐Pyrrol‐3‐Yl)Carbamoyl)Pyrrolidine‐1‐Carboxylate], for which, on GRK6, the “Selectivity GRK5/GRK6” value is reported as 1 fold and inhibition was half-maximal at 880 ± 50 nM (IC50). On GRK5, the “Selectivity GRK2/GRK5” value was more than 1000 fold and the IC50 stood at 1000 ± 600 nM. At GRK2, this compound gave an IC50 of more than 1000 µM.

Turning to `Cc1[nH]c(/C=C2\C(=O)Nc3ccc(C(=O)N[C@H](C)c4ccc(F)cc4)cc32)c(C)c1NC(=O)[C@@H]1CCCNC1` [6r, (Z)‐3‐((3,5‐Dimethyl‐4‐((R)‐Piperidine‐3‐Carboxamido)‐1H‐Pyrrol‐2‐Yl)Methylene)‐N‐((R)‐1‐(4‐Fluorophenyl)Ethyl)‐2‐Oxoindoline‐5‐Carboxamide], on GRK6, the “Selectivity GRK5/GRK6” value turned out to be 1 fold and the IC50 was found to be 60 ± 20 nM. In addition, at GRK5, the “Selectivity GRK2/GRK5” value turned out to be 20 fold and the IC50 was found to be 30 ± 2 nM. This compound also displayed an IC50 on GRK2 of 0.62 ± 0.3 µM.
